Measurements from US9820483B2, “Microbial composition” (Rohm and Haas Company, priority 2011, dated 2017).

Key:
S. aureus ATCC 6538 = assay: Synergy of terpinyl alcohols with phenolic compounds in water, 15 seconds contact, plate count log reduction; assay type: cell-based, Staphylococcus aureus; conditions: 0.1% alone
Procedure: Liquid actives were used directly. Solid actives were dissolved in alcohol and a 50% stock was made.
The culture was grown overnight in Tryptone soya agar. It was suspended in saline (0.85% NaCl) to a con. of 1.5×10^8-5×10^8 cells/ml
To 9 ml water the actives were added to give the desired concentration. 1 ml of the culture was added and mixed. After 15 seconds contact 1 ml aliquot was removed and added to a neutraliser and kept for 5 minutes. A control of untreated cells was similarly processed. It was then diluted and plated. The plates were incubated at 37° C. for 24 hours. The colonies on the plates were counted. The counts were converted to log10. The log. no. of survivors was determined and log reduction calculated.

[1] = system: Escherichia coli (10536 strain); assay: Antimicrobial efficacy in water, 15 seconds contact, mean bacterial survival NMBS on TSA plates; assay type: cell-based; conditions: E. coli, 15 s
Procedure: Antimicrobial efficacy is tested against a representative pathogenic bacterial organism, Gram negative Escherichia coli. Concentrations of actives are expressed in terms of the percentage weight/volume (% w/v) throughout the following Examples. […] Here, OD620 indicates the absorbance of a sample in a cuvette of 1.0 cm path length at a wavelength of 620 nm. This bacterial stock was used for assaying against antimicrobial actives (in triplicate). The following assay describes the testing of 8 materials using 6 dilutions across half of a 96-well micro titre plate (MTP). […] 1M solutions of the test actives were prepared in dimethylsulphoxide (DMSO). […] This MTP was labelled as the “Screening plate”. […] The composition of the neutralising solution was as follows: pancreatic digest of casein, 5.0 g/L; […] 270 μl of tryptone diluent solution was added to all the remaining wells of the Dilution MTP (columns 2-6). […] After a contact time of 15 seconds, the mixtures were quenched by transferring 30 μl volumes of the mixtures into the 270 μl D/E neutralising solution in the prepared dilution plate, using aspiration to mix. […] Mean bacterial survival numbers NMBS (expressed in Log CFU/ml) are obtained by first determining the segment of the TSA plate where the number of bacterial colonies is countable. From the colony number in this segment. NMBS is calculated by the formula: […] DF may range from 1 for the quench, to 6 for the highest dilution). The factor 100/3 is a conversion factor from the volume of the inocula spot to one milliliter. Every assay test was performed in triplicate. The reported mean bacterial survival results are the average of such a triplet, the error is the corresponding standard deviation. […] Such a count of about 7 is generally observed when bacteria are exposed to non-biocidal materials.

[2] = system: Escherichia coli (E. coli—ATCC #10536); assay: Automated assessment of efficacy in model surfactant base (2.85% sodium cocoyl glycinate + 1.85% sodium lauroamphoacetate, pH 10), 15 seconds exposure, delta OD450/OD590 in D/E quench; assay type: cell-based
Procedure: Solutions were prepared such that the concentrations of the surfactant components and test actives were 1.1× the final desired concentration in order to allow for dilution with the bacterial inoculum in the test. The solutions were manually adjusted to pH 10.0 by dropwise addition of sodium hydroxide solution, as measured with a pH meter at ambient temperature.
Tests were conducted using standard microtiter plate assays using an automated liquid handling system. 270 μl of the surfactant test solution was pipetted into each well of the microtitre plate and 30 μl of the bacterial suspension was then added. After exactly 15 seconds of bacterial exposure, a 30 μl volume of bacterial cells was withdrawn and transferred to 270 μl of D/E quench solution. After 5 minutes in the D/E quench, the optical density (OD) was measured for each plate in turn at two specific wavelengths (450 nm and 590 nm). These provide a dual check of antimicrobial activity, as the OD450 reading is specific for the yellow colour of D/E quench when bacterial growth is observed, whereas OD590 is specific for the initial purple colour of the D/E quench which is retained if no bacterial growth is observed. After the time zero OD measurements, plates were then incubated at 37° C. overnight (16 hours) before repeating the OD measurements. Delta OD values were calculated by subtracting […]. Bacterial growth is observed as an increase in OD450 and a decrease in ΔOD590. To identify antibacterially efficacious systems (those preventing appreciable bacterial growth after incubation), the following threshold changes in OD readings have been adopted: if (1). OD450 increases by less than 0.2 absorbance unit on incubation and (2). OD590 decreases by less than 0.35 unit on incubation. Conversely, where OD450 increases by more than 0.2 AU and OD590 decreases by more than 0.35 unit after incubation, corresponding to a colour shift from purple to yellow, the test system allows bacterial growth and is not deemed efficacious. Four replicate measurements in the same plate have been made for each test system. The number of replicate wells showing either bacterial growth or no growth is also readily assessed by eye by following the colour change.
Dose responses for individual components and binary mixtures of actives at a fixed concentration ratio were generated by sequential dilution of liquors with further surfactant solution to obtain a series of endpoints.
In some selected cases, the combinations were also tested at the weight ratio 1:1.
The method used was the same as in the above Table.

Compound | Log reduction S. aureus ATCC 6538 (S. aureus ATCC 6538) | NMBS ([1]; 0.3% w/v alone) | NMBS ([1]; 0.4% w/v alone) | NMBS ([1]; […] w/v alone) | MBC ([1]; component alone, in water) | MBC ([2]; Escherichia coli, ATCC10536, 15 s, in 2.85% sodium cocoyl glycinate + 1.85% sodium lauroamphoacetate solution at pH 10, E. coli, read-out: MBC) | No. of replicates showing growth (out of 4) ([2]; single active at 0.3% w/v) | Δ OD 590 nm = OD590 (time = 16 hours) − OD590 (time zero), Mean ([2]; single active at 0.3% w/v) | ΔOD 450 nm = OD450 (time = 16 hours) − OD450 (time zero), Mean ([2]; single active at 0.3% w/v) | No. of replicates showing growth (out of 4) ([2]; single active at 0.5% w/v) | Δ OD 590 nm = OD590 (time = 16 hours) − OD590 (time zero), Mean ([2]; single active at 0.5% w/v) | ΔOD 450 nm = OD450 (time = 16 hours) − OD450 (time zero), Mean ([2]; single active at 0.5% w/v) | No. of replicates showing growth (out of 4) ([2]; single active at […] w/v) | Δ OD 590 nm = OD590 (time = 16 hours) − OD590 (time zero), Mean ([2]; single active at […] w/v) | ΔOD 450 nm = OD450 (time = 16 hours) − OD450 (time zero), Mean ([2]; single active at […] w/v)
CC=Cc1ccccc1O [2-propenylphenol] | 1.92 | – | – | – | – | – | – | – | – | – | – | – | – | – | –
C=C(C)C1CCC(C)CC1O (stereo not drawn) [isopulegol, 5-methyl-2-(prop-1-en-2-yl)cyclohexanol] | – | 0 log CFU/ml | 0 log CFU/ml | 7.77 log CFU/ml | 0.3 % (w/v) | > 5000 µg/mL | 4 | 0.61 | −0.49 | 2 | 0.42 | −0.09 | 4 | 0.59 | −0.54
